Results reported in patent EP2140864A2 (H. Lundbeck A/S, priority 2001, dated 2002).
Marks after values point to notes of the source that are not given here.

Legend:
Male Sprague-Dawley rats = assay: Rat Forced Swim Test (FST); format: in vivo; settings: for Climbing / Diving / Immobility / Swimming: single administration, 1 hr. before test
Method: The procedure used in this study was similar to that previously described (Porsolt, et al., 1978), except the water depth (30 cm in this procedure). The greater depth in this test prevented the rats from supporting themselves by touching the bottom of the cylinder with their feet. Swim sessions were conducted by placing rats in individual plexiglass cylinders (46 cm tall x 20 cm in diameter) containing 23-25°C water 30 cm deep (Porsolt, et al. used a depth of only 15 cm; also, see Detke, et al., 1995). Two swim tests were conducted always between 1200 and 1800 hours: an initial 15-min pretest followed 24 h later by a 5-minute test. […] All other test sessions were conducted between 1300 to 1700 hours. Following all swim sessions, rats were removed from the cylinders, dried with paper towels and placed in a heated cage for 15 minutes and returned to their home cages. All test sessions were videotaped using a Panasonic color video camera and recorder for scoring later.
Male Sprague-Dawley rats (Taconic Farms, NY) were used in all experiments. Rats were housed in pairs and maintained on a 12:12-h light-dark cycle. Rats were handled for 5 minutes each day for 5 days prior to behavioral testing.
The rat's behavior was rated at 5 second intervals during the 5 minute test as one of the following: • 1. Immobility- rat remained floating in the water without struggling and was only making those movements necessary to keep its head above water; • 2. Climbing - rat was making active movements with its forepaws in and out of the water, usually directed against the walls; • 3. Swimming - rat was making active swimming motions, more than necessary to merely maintain its head above water, e.g. moving around in the cylinder; and • 4. Diving - entire body of the rat was submerged.
All of the behavior scoring was done by a single rater, who was blind to the treatment condition. The rater was also present in the room throughout the entire test period.
All injections were given using 1 cc tuberculin syringe with 26 3/8 gauge needles (Becton-Dickinson, VWR Scientific, Bridgeport, NJ). The volume of injection was 1 ml/kg.
The drugs were dissolved in 100% N,N-dimethylacetamide. All administrations were given using 1 cc tuberculin syringes, to which a 3 inch, curved, stainless steel gavage needle was attached. The volume of administration was 1 ml/kg.
The compounds were dissolved in 100% N,N-dimethylacetamide. All administrations were given using 1 cc tuberculin syringes, to which a 3 inch, curved, stainless steel gavage needle was attached. The volume of administration was 1 ml/kg.
The forced swim test data (immobility, swimming, climbing, diving) were subjected to a randomized, one-way ANOVA and post hoc tests conducted using the Student-Newman-heuls test. The data were analyzed using the GBSTAT program, version 6.5 (Dynamics Microsystems, Inc., Silver Spring, MD, 1997). All data are presented as means ± S.E.M.

NE transporter [1] = target: NE transporter (Rattus norvegicus, UniProt Q63380); assay: Binding at native NE transporter; settings: Table 7; native transporter, head prints r (rat); read-out: rNE Uptk Ki
NE transporter (Rattus norvegicus, UniProt Q63380), sequence (Q63380 1-617): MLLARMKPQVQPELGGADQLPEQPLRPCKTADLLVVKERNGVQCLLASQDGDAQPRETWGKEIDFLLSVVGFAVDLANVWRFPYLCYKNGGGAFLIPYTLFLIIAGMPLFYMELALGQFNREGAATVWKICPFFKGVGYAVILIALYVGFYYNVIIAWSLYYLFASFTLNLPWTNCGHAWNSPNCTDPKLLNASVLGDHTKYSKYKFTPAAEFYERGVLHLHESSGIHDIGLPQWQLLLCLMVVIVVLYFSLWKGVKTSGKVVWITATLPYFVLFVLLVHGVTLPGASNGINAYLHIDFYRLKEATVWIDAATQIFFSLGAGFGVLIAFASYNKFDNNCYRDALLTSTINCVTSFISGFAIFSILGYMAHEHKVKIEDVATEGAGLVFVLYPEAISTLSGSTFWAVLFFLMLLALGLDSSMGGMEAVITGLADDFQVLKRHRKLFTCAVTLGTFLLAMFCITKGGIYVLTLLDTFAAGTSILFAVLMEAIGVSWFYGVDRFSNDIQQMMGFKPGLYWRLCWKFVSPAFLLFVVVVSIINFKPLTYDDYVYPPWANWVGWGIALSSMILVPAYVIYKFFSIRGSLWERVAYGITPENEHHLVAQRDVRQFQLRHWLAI
Method: (§1) The binding properties of the compounds of the present invention were evaluated at one or more cloned receptors or native, tissue-derived transporters, using protocols described below.
(§2) The methods to determine binding affinity at native transporters are described in the following publications: 5HT transporter and NE transporter (Owens et al., 1997), and DA transporter (Javitch et al, 1984).
(§3) Binding data were analyzed using nonlinear regression and statistical techniques available in the GraphPAD Prism package (San Diego, CA). Enzymatic assay data were derived from a standard curve of reference compound data.

NE transporter [2] = assay: Binding at native NE transporter; settings: Table 8; Ki rNE Uptk divided by Ki hGAL3
Method: as §1, §2, §3

human GAL1 receptor = target: T1, human GAL1 receptor (Homo sapiens, UniProt P47211); assay: Radioligand binding at cloned human GAL1 receptor; settings: pyrimidines, read-out: Ki GalR1
T1 construct: expressed in transfected cells
T1 sequence (P47211 1-349): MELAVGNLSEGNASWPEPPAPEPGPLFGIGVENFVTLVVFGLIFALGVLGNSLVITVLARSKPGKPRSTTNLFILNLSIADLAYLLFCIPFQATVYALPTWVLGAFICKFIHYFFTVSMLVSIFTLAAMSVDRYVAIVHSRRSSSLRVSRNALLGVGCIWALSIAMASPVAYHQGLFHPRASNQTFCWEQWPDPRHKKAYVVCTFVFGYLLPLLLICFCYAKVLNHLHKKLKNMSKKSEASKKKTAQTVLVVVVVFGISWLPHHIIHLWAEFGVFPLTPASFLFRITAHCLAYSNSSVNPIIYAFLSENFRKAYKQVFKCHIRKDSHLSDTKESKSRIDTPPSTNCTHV
Outline: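 Membranes from CHO cells stably expressing human GAL2 and LM(tk-) cells stably expressing human GAL1, resuspended in binding buffer (10 mM NaCl, 20 mM HEPES, pH 7.4). Binding data fitted by nonlinear regression.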

Cc1ccc(Nc2cc(N3CCCCC3)nc(N(C)CCc3ccccc3)n2)cc1 [Example 22] was tested. Which Climbing (Male Sprague-Dawley rats; 3 mg/kg p.o.) did it give?
The Climbing was 2.0 ± 0.6.

And the Diving (Male Sprague-Dawley rats; 3 mg/kg p.o.)?
Its Diving is 0.4 ± 0.4.

What about the Immobility (Male Sprague-Dawley rats; 3 mg/kg p.o.) of the same molecule?
The Immobility was 50 ± 0.9.

What about the Swimming (Male Sprague-Dawley rats; 3 mg/kg p.o.) of the same molecule?
The Swimming was 7.6 ± 0.5.

And the Climbing (Male Sprague-Dawley rats; 10 mg/kg p.o.)?
Its Climbing is 2.9 ± 0.5.

What about the Diving (Male Sprague-Dawley rats; 10 mg/kg p.o.) of the same molecule?
Its Diving is 0.4 ± 0.3.

What about the Immobility (Male Sprague-Dawley rats; 10 mg/kg p.o.) of the same molecule?
The Immobility was 41 ± 1.3^c.

And the Swimming (Male Sprague-Dawley rats; 10 mg/kg p.o.)?
The Swimming was 15.3 ± 0.8^g.

What about the Climbing (Male Sprague-Dawley rats; 30 mg/kg p.o.) of the same molecule?
Its Climbing is 5.2 ± 1.0^a.

And the Diving (Male Sprague-Dawley rats; 30 mg/kg p.o.)?
The Diving was 0.0 ± 0.0.

What about the Immobility (Male Sprague-Dawley rats; 30 mg/kg p.o.) of the same molecule?
The Immobility was 31 ± 2.8^b.

What about the Swimming (Male Sprague-Dawley rats; 30 mg/kg p.o.) of the same molecule?
Its Swimming is 23.2 ± 2.0^f.

What about the “antidepressant profile in the FST (conclusion)” value (Male Sprague-Dawley rats; overall conclusion of the study) of the same molecule?
Its value is “has antidepressant properties”.

And the Ki (NE transporter [1])?
The Ki was 13.1 µM.

What about the “selectivity ratio rNE Uptk” value (NE transporter [2]) of the same molecule?
Its value is greater than 100.

And the Ki (human GAL1 receptor)?
Its Ki is 0.442 µM.
